According to paper PMC11859928, “Design, Synthesis, and Antiproliferative Activity of Novel Indole/1,2,4-Triazole Hybrids as Tubulin Polymerization Inhibitors” (Pharmaceuticals, 2025):

Columns and labels:
Assay in all cases: NCI one-dose assay
786-0 = type: cell-based, human; details: Homo sapiens, 786-0, 786-0, Renal cancer, read-out: Cell growth inhibition %
Protocol: (§1) The National Cancer Institute (NCI), Bethesda, USA, selected the final compounds 6a–j and 7a–j for in vitro anticancer screening. An initial in vitro single-dose anticancer experiment was performed with the entire NCI 60 cell lines derived from nine tumor subpanel cancer cell lines. The results for each compound were illustrated as a mean graph showing the percentage growth of treated cells compared to untreated control cells (see Supplementary Materials).
(§2) The NCI anticancer screening process has been thoroughly detailed. The Drug Evaluation Branch of the National Cancer Institute in Bethesda, […], USA, established the procedure and conducted the anticancer assay on 60 human tumor cell lines from nine neoplastic cancers.

HOP-92 = type: cell-based, human; details: for inhibition at 10 µM: Homo sapiens, HOP-92, HOP-92, Non-small cell lung cancer, read-out: Cell growth inhibition %
Protocol: as §1, §2

UO-31 = type: cell-based, human; details: Homo sapiens, UO-31, UO-31, Renal cancer, read-out: Cell growth inhibition %
Protocol: as §1, §2

SW-620 = type: cell-based; details: Homo sapiens, SW-620, Colon cancer, read-out: Cell growth inhibition %
Protocol: as §1, §2

OVCAR-3 = type: cell-based; details: Homo sapiens, OVCAR-3, Ovarian cancer, read-out: Cell growth inhibition %
Protocol: as §1, §2

TK-10 = type: cell-based; details: Homo sapiens, TK-10, Renal cancer, read-out: Cell growth inhibition %
Protocol: as §1, §2

U251 = type: cell-based; details: Homo sapiens, U-251, U251, CNS cancer, read-out: Cell growth inhibition %
Protocol: as §1, §2

CAKI-1 = type: cell-based; details: Homo sapiens, CAKI-1, Renal cancer, read-out: Cell growth inhibition %
Protocol: as §1, §2

SNB-19 = type: cell-based; details: Homo sapiens, SNB-19, CNS cancer, read-out: Cell growth inhibition %
Protocol: as §1, §2

SK-MEL-2 = type: cell-based; details: Homo sapiens, SK-MEL-2, Melanoma, read-out: Cell growth inhibition %
Protocol: as §1, §2

NCI-H322M = type: cell-based; details: Homo sapiens, Non-small cell lung cancer, read-out: Cell growth inhibition %
Protocol: as §1, §2

NCI-H23 = type: cell-based; details: Homo sapiens, NCI-H23, Non-small cell lung cancer, read-out: Cell growth inhibition %
Protocol: as §1, §2

SK-MEL-28 = type: cell-based; details: Homo sapiens, SK-MEL-28, Melanoma, read-out: Cell growth inhibition %
Protocol: as §1, §2

HCT-116 = type: cell-based; details: Homo sapiens, HCT-116, Colon cancer, read-out: Cell growth inhibition %
Protocol: as §1, §2

OVCAR-4 = type: cell-based; details: Homo sapiens, OVCAR-4, Ovarian cancer, read-out: Cell growth inhibition %
Protocol: as §1, §2

MALME-3M = type: cell-based; details: Homo sapiens, Melanoma, read-out: Cell growth inhibition %
Protocol: as §1, §2

PC-3 = type: cell-based; details: Homo sapiens, PC-3, Prostate cancer, read-out: Cell growth inhibition %
Protocol: as §1, §2

K-562 = type: cell-based; details: Homo sapiens, K562, K-562, Leukemia, read-out: Cell growth inhibition %
Protocol: as §1, §2

HCC-2998 = type: cell-based; details: Homo sapiens, HCC-2998, Colon cancer, read-out: Cell growth inhibition %
Protocol: as §1, §2

ACHN = type: cell-based; details: Homo sapiens, Renal cancer, read-out: Cell growth inhibition %
Protocol: as §1, §2

CCRF-CEM = type: cell-based; details: Homo sapiens, Leukemia, read-out: Cell growth inhibition %
Protocol: as §1, §2

COLO 205 = type: cell-based; details: Homo sapiens, COLO 205, Colon cancer, read-out: Cell growth inhibition %
Protocol: as §1, §2

UACC-257 = type: cell-based; details: Homo sapiens, UACC-257, Melanoma, read-out: Cell growth inhibition %
Protocol: as §1, §2

T-47D = type: cell-based; details: Homo sapiens, T47D, Breast cancer, read-out: Cell growth inhibition %
Protocol: as §1, §2

NCI-H226 = type: cell-based; details: Homo sapiens, NCI-H226, Non-small cell lung cancer, read-out: Cell growth inhibition %
Protocol: as §1, §2

RPMI-8226 = type: cell-based; details: Homo sapiens, RPMI-8226, Leukemia, read-out: Cell growth inhibition %
Protocol: as §1, §2

HL-60(TB) = type: cell-based; details: Homo sapiens, Leukemia, read-out: Cell growth inhibition %
Protocol: as §1, §2

KM12 = type: cell-based; details: Homo sapiens, KM12, Colon cancer, read-out: Cell growth inhibition %
Protocol: as §1, §2

SN12C = type: cell-based; details: Homo sapiens, Renal cancer, read-out: Cell growth inhibition %
Protocol: as §1, §2

OVCAR-5 = type: cell-based; details: Homo sapiens, OVCAR-5, Ovarian cancer, read-out: Cell growth inhibition %
Protocol: as §1, §2

DU-145 = type: cell-based; details: Homo sapiens, DU-145, Prostate cancer, read-out: Cell growth inhibition %
Protocol: as §1, §2

MCF7 = type: cell-based; details: Homo sapiens, MCF7, Breast cancer, read-out: Cell growth inhibition %
Protocol: as §1, §2

HOP-62 = type: cell-based; details: Homo sapiens, HOP-62, Non-small cell lung cancer, read-out: Cell growth inhibition %
Protocol: as §1, §2

SNB-75 = type: cell-based; details: Homo sapiens, SNB-75, CNS cancer, read-out: Cell growth inhibition %
Protocol: as §1, §2

NCI-H522 = type: cell-based; details: Homo sapiens, NCI-H522, Non-small cell lung cancer, read-out: Cell growth inhibition %
Protocol: as §1, §2

`C=CCn1c(SCC(=O)c2ccc(C)cc2)nnc1-c1c[nH]c2ccccc12` [Compound 6c, 2-((4-allyl-5-(1H-indol-3-yl)-4H-1,2,4-triazol-3-yl)thio)-1-(p-tolyl)ethanone] was tested, and the inhibition at 10 µM (786-0) was 2.26%, the “Cell growth inhibition %” value (HOP-92; HOP-92, Non-small cell lung cancer, 10 µM) was 49.73% and the inhibition at 10 µM (HOP-92) was 50%. For the same compound, the inhibition at 10 µM (UO-31) was 29.7%, the inhibition at 10 µM (SW-620) was -0.34% and the inhibition at 10 µM (OVCAR-3) was -13.1%. It also gave an inhibition at 10 µM (TK-10) of -39.1%, an inhibition at 10 µM (U251) of 6.75% and an inhibition at 10 µM (CAKI-1) of 15.1%. For the same compound, the inhibition at 10 µM (SNB-19) was 3.56%, the inhibition at 10 µM (SK-MEL-2) was 1.54% and the inhibition at 10 µM (NCI-H322M) was 0.83%. It also gave an inhibition at 10 µM (NCI-H23) of -5.98%, an inhibition at 10 µM (SK-MEL-28) of -4.91% and an inhibition at 10 µM (HCT-116) of 9.79%. The inhibition at 10 µM (OVCAR-4) was -10.4%, the inhibition at 10 µM (MALME-3M) was 10.5% and the inhibition at 10 µM (PC-3) was 22.2%. It also gave an inhibition at 10 µM (K-562) of 12.8%, an inhibition at 10 µM (HCC-2998) of -7.01% and an inhibition at 10 µM (ACHN) of 11%. The inhibition at 10 µM (CCRF-CEM) was 9.66%, the inhibition at 10 µM (COLO 205) was -25.9% and the inhibition at 10 µM (UACC-257) was 6.7%. For the same compound, the inhibition at 10 µM (T-47D) was 9.92%, the inhibition at 10 µM (NCI-H226) was 17.1% and the inhibition at 10 µM (RPMI-8226) was 13.8%. It also gave an inhibition at 10 µM (HL-60(TB)) of 10.4%, an inhibition at 10 µM (KM12) of -6.02% and an inhibition at 10 µM (SN12C) of 5.47%. It also gave an inhibition at 10 µM (OVCAR-5) of -2.57%, an inhibition at 10 µM (DU-145) of -8.9% and an inhibition at 10 µM (MCF7) of 9.88%. The inhibition at 10 µM (HOP-62) was 9.23%, the inhibition at 10 µM (SNB-75) was -4.77% and the inhibition at 10 µM (NCI-H522) was 4.55%.
With `C=CCn1c(SCC(=O)c2ccc(Br)cc2)nnc1-c1c[nH]c2ccccc12` [Compound 6d, 2-((4-Allyl-5-(1H-indol-3-yl)-4H-1,2,4-triazol-3-yl)thio)-1-(4-bromophenyl)ethenone] the inhibition at 10 µM (786-0) was 1.44%, the inhibition at 10 µM (HOP-92) was 8.6% and the inhibition at 10 µM (UO-31) was 31.6%. The inhibition at 10 µM (SW-620) was -10.2%, the inhibition at 10 µM (OVCAR-3) was -10.4% and the inhibition at 10 µM (TK-10) was -34.3%. It also gave an inhibition at 10 µM (U251) of 0.12%, an inhibition at 10 µM (CAKI-1) of 9.77% and an inhibition at 10 µM (SNB-19) of -0.26%. It also gave an inhibition at 10 µM (SK-MEL-2) of -15.3%, an inhibition at 10 µM (NCI-H322M) of 0.55% and an inhibition at 10 µM (NCI-H23) of 4.98%. For the same compound, the inhibition at 10 µM (SK-MEL-28) was 3.9%, the inhibition at 10 µM (HCT-116) was 6.53% and the inhibition at 10 µM (OVCAR-4) was -8.69%. For the same compound, the inhibition at 10 µM (MALME-3M) was 9.34%, the inhibition at 10 µM (PC-3) was 21.7% and the inhibition at 10 µM (K-562) was 14.5%. The inhibition at 10 µM (HCC-2998) was -4.47%, the inhibition at 10 µM (ACHN) was 11.7% and the inhibition at 10 µM (CCRF-CEM) was 2.08%. For the same compound, the inhibition at 10 µM (COLO 205) was -7.53%, the inhibition at 10 µM (UACC-257) was -7.6% and the inhibition at 10 µM (T-47D) was 2.98%. It also gave an inhibition at 10 µM (NCI-H226) of 9.93%, an inhibition at 10 µM (RPMI-8226) of 1.17% and an inhibition at 10 µM (HL-60(TB)) of 7.71%. For the same compound, the inhibition at 10 µM (KM12) was -2.46%, the inhibition at 10 µM (SN12C) was 4.39% and the inhibition at 10 µM (OVCAR-5) was 3.19%. The inhibition at 10 µM (DU-145) was -6.19%, the inhibition at 10 µM (MCF7) was 2.11% and the inhibition at 10 µM (HOP-62) was -2.78%. It also gave an inhibition at 10 µM (SNB-75) of -6.14% and an inhibition at 10 µM (NCI-H522) of 3.7%.
For `C=CCn1c(SCC(=O)c2ccc(Cl)cc2)nnc1-c1c[nH]c2ccccc12` [Compound 6e, 2-((4-Allyl-5-(1H-indol-3-yl)-4H-1,2,4-triazol-3-yl)thio)-1-(4-chlorophenyl)ethenone], the inhibition at 10 µM (786-0) was 3.55%, the inhibition at 10 µM (HOP-92) was 21% and the inhibition at 10 µM (UO-31) was 28.5%. For the same compound, the inhibition at 10 µM (SW-620) was -2.66%, the inhibition at 10 µM (OVCAR-3) was -12.2% and the inhibition at 10 µM (TK-10) was -24.3%. It also gave an inhibition at 10 µM (U251) of 3.75%, an inhibition at 10 µM (CAKI-1) of 7.04% and an inhibition at 10 µM (SNB-19) of 0.6%. The inhibition at 10 µM (SK-MEL-2) was -17.1%, the inhibition at 10 µM (NCI-H322M) was -2.47% and the inhibition at 10 µM (NCI-H23) was -7.09%. For the same compound, the inhibition at 10 µM (SK-MEL-28) was -10.1%, the inhibition at 10 µM (HCT-116) was 6.8% and the inhibition at 10 µM (OVCAR-4) was -8%. The inhibition at 10 µM (MALME-3M) was 9.28%, the inhibition at 10 µM (PC-3) was 22.3% and the inhibition at 10 µM (K-562) was 10.1%. The inhibition at 10 µM (HCC-2998) was -15.6%, the inhibition at 10 µM (ACHN) was 7.39% and the inhibition at 10 µM (CCRF-CEM) was 2.28%. It also gave an inhibition at 10 µM (COLO 205) of -11.1%, an inhibition at 10 µM (UACC-257) of 2.2% and an inhibition at 10 µM (T-47D) of 3.25%. The inhibition at 10 µM (NCI-H226) was 10.3%, the inhibition at 10 µM (RPMI-8226) was 7.71% and the inhibition at 10 µM (HL-60(TB)) was 10.8%. It also gave an inhibition at 10 µM (KM12) of -3.89%, an inhibition at 10 µM (SN12C) of 4.38% and an inhibition at 10 µM (OVCAR-5) of -5.38%. It also gave an inhibition at 10 µM (DU-145) of -14.4%, an inhibition at 10 µM (MCF7) of 7.08% and an inhibition at 10 µM (HOP-62) of 4.08%. The inhibition at 10 µM (SNB-75) was -0.53% and the inhibition at 10 µM (NCI-H522) was 7.55%.
